Reference: patent US9340590B2 (priority 2011, dated 2016)
Positions of bridges follow the written chain, without caps; N, C: chain ends. Non-standard residues stand in square brackets, D forms with d. Residues, ends and D or L forms follow the SMILES beside them. *: point of attachment. Pent4ynoyl = C#CCCC(=O)*; Pra = C#CC[C@H](N)C(=O)O; Abu = CC[C@H](N)C(=O)O

Legend:
hNav1.7 = hNav1.7 (Homo sapiens, UniProt Q15858); test: cell-based; details: Nav1.7 Use IC50
hNav1.5 = hNav1.5 (Homo sapiens, UniProt Q14524); test: cell-based
Sequence of hNav1.5 (Q14524 whole entry, looked up): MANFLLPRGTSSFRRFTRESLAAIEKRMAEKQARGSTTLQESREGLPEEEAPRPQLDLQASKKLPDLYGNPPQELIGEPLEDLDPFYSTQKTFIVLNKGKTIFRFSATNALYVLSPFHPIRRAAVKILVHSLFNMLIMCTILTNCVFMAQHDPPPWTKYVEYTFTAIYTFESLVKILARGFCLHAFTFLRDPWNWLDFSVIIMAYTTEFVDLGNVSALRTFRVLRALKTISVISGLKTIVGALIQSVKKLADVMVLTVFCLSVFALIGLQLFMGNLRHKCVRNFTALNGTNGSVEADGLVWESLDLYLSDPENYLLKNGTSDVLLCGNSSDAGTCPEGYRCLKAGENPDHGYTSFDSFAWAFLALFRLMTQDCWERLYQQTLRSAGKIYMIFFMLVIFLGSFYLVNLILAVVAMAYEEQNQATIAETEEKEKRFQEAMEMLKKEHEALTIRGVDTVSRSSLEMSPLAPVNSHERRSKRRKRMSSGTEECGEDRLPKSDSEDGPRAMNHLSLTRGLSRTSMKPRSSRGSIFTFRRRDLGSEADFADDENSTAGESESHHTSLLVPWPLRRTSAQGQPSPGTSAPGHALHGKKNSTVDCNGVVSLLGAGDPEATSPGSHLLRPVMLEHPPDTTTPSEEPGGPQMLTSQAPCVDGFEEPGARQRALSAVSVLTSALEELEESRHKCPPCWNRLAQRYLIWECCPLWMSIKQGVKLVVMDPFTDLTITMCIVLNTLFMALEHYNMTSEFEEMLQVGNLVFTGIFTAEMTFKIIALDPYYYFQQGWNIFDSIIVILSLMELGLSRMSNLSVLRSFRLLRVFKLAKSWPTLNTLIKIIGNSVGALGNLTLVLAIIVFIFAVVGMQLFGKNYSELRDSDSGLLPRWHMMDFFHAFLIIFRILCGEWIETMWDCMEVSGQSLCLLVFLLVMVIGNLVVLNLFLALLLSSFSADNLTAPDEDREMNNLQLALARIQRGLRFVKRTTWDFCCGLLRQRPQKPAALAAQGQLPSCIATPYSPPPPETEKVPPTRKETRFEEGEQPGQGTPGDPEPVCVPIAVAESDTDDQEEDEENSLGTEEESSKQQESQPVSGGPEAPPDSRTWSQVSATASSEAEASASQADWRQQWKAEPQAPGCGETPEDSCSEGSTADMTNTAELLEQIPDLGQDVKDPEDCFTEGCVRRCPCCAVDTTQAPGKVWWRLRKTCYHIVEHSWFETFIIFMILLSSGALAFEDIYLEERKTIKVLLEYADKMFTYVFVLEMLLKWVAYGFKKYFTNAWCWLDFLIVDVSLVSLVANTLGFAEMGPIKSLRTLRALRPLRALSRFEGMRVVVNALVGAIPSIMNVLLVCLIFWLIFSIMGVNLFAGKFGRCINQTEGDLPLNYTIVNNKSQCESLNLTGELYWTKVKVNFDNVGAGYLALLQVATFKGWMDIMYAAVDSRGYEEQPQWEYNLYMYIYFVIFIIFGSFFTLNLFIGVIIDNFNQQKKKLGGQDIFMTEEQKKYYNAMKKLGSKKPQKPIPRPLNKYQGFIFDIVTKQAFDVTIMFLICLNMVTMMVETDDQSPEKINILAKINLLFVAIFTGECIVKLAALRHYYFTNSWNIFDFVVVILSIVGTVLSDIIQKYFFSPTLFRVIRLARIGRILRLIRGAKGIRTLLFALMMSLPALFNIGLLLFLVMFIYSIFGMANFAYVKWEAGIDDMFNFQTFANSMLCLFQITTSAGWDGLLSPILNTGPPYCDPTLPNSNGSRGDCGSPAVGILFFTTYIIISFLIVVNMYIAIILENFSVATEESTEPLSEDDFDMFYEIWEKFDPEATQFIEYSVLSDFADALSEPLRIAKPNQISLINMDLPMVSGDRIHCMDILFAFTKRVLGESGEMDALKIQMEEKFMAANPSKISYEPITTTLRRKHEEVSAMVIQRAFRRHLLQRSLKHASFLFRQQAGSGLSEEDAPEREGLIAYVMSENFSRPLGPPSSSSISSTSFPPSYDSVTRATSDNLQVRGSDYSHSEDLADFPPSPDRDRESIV

Sequence of hNav1.7 (Q15858 whole entry, looked up): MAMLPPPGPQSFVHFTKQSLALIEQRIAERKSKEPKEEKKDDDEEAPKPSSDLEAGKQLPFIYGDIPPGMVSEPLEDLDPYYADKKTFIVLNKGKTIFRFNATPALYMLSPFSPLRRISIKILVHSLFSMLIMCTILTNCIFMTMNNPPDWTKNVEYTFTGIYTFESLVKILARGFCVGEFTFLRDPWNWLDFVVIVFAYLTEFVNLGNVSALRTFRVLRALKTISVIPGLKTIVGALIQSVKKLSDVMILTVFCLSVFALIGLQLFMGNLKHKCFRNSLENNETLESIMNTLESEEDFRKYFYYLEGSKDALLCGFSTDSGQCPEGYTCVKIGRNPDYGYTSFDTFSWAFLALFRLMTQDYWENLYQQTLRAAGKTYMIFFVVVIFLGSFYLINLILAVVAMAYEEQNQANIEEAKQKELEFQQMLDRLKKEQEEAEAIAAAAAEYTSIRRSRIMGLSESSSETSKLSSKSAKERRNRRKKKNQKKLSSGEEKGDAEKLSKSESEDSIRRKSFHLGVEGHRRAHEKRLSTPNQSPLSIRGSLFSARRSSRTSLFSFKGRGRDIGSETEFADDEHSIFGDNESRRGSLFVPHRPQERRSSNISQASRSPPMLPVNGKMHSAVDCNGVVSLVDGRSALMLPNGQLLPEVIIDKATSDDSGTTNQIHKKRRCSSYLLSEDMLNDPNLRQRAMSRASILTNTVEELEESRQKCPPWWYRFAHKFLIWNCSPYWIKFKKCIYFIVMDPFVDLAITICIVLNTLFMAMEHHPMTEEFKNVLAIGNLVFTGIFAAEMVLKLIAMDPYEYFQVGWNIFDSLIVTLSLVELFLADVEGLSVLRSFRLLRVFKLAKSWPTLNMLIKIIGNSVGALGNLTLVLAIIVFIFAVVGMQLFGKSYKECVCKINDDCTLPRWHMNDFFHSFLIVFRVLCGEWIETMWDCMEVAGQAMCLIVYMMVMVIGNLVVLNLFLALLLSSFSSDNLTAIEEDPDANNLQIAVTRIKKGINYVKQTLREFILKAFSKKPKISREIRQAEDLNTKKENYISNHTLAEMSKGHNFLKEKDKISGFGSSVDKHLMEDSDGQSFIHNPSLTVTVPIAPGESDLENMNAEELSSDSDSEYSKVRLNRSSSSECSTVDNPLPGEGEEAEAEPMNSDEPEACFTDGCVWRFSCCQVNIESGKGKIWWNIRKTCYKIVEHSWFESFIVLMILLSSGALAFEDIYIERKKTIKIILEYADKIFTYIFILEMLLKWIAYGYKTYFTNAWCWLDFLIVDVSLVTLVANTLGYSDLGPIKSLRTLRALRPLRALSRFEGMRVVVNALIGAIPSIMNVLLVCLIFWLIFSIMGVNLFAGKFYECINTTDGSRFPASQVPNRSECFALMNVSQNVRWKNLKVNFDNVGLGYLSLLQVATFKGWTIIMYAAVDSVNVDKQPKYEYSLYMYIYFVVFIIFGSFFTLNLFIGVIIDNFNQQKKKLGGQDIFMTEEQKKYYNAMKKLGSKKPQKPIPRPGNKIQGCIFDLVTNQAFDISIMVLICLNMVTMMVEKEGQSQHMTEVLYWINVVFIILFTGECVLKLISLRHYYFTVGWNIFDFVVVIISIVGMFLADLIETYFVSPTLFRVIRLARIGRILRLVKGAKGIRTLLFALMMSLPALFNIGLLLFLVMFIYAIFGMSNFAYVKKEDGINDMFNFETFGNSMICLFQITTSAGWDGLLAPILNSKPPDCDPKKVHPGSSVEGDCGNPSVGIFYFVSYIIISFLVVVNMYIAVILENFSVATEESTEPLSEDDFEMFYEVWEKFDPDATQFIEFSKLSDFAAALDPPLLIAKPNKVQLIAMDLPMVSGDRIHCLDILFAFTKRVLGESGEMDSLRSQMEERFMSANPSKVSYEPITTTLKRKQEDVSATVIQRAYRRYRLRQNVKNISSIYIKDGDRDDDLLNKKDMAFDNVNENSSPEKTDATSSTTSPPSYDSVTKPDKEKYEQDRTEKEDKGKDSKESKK

Row | Compound | IC50 (hNav1.7) [nM] | IC50 (hNav1.5) [nM]
1 | CC[C@H](C)[C@@H]1NC(=O)[C@@H]2CSSC[C@@H]3NC(=O)[C@H](C(C)C)NC(=O)[C@H](CC(C)C)NC(=O)[C@H](CC(N)=O)NC(=O)[C@@H]4CCCN4C(=O)[C@H](CCCNC(N)=O)NC(=O)[C@H](CSSC[C@H](NC(=O)[C@@H](N)CC(=O)O)C(=O)N[C@@H](CC(C)C)C(=O)NCC(=O)N[C@@H](Cc4ccccc4)C(=O)N[C@@H](CCSC)C(=O)N[C@@H](CCCNC(=N)N)C(=O)N[C@@H](CCCCN)C(=O)N2)NC(=O)[C@H](CSSC[C@@H](C(=O)N[C@@H](CCCCN)C(=O)N[C@@H](Cc2ccc(O)cc2)C(=O)N[C@H](C(=O)N[C@@H](Cc2ccccc2)C(N)=O)C(C)C)NC(=O)[C@H](Cc2c[nH]c4ccccc24)NC(=O)[C@H](CCCCN)NC(=O)[C@H](Cc2cnc[nH]2)NC(=O)[C@H]([C@@H](C)O)NC(=O)[C@H](CCCNC(=N)N)NC(=O)[C@H](CO)NC3=O)NC(=O)[C@H](CCCCN)NC(=O)[C@H](CC(=O)O)NC(=O)[C@H](CC(N)=O)NC(=O)[C@H](CC(=O)O)NC(=O)[C@@H]2CCCN2C1=O [[Cit18]GpTx-1(1-34)] | 2 | 10000
2 | CSCC[C@@H]1NC(=O)[C@H](C(C)C)NC(=O)CNC(=O)[C@H](CC(C)C)NC(=O)[C@@H](NC(=O)[C@@H](N)CC(=O)O)CSSC[C@@H]2NC(=O)[C@@H]3CSSC[C@@H](C(=O)N[C@@H](CCCCN)C(=O)N[C@@H](Cc4ccc(O)cc4)C(=O)N[C@H](C(=O)N[C@@H](Cc4ccccc4)C(N)=O)C(C)C)NC(=O)[C@H](Cc4c[nH]c5ccccc45)NC(=O)[C@H](CCCCN)NC(=O)[C@H](Cc4c[nH]cn4)NC(=O)[C@H]([C@@H](C)O)NC(=O)[C@H](CCCNC(=N)N)NC(=O)[C@H](CO)NC(=O)[C@H](CSSC[C@H](NC(=O)[C@H](CCCCN)NC(=O)[C@H](CCCNC(=N)N)NC1=O)C(=O)N[C@@H](CC(=O)O)C(=O)N1CCC[C@H]1C(=O)N[C@@H](CCC(=O)O)C(=O)N[C@@H](CC(N)=O)C(=O)N[C@@H](CC(=O)O)C(=O)N[C@@H](CCCCN)C(=O)N3)NC(=O)[C@H](C(C)C)NC(=O)[C@H](CC(C)C)NC(=O)[C@H](CC(N)=O)NC(=O)[C@@H]1CCCN1C(=O)[C@H](CCCNC(=N)N)NC2=O [[Val5;Asp10;Glu12]GpTx-1(1-34)] (H-DCLGVMRKCDPENDKCCRPNLVCSRTHKWCKYVF-NH2; disulfide 2-17, 9-23, 16-30) | 116 | > 10000
3 | CC[C@@H]1NC(=O)[C@H](CC(=O)O)NC(=O)[C@@H]2CCCN2C(=O)[C@H]([C@@H](C)CC)NC(=O)[C@@H]2CSSC[C@@H]3NC(=O)[C@H](C(C)C)NC(=O)[C@H](CC(C)C)NC(=O)[C@H](CC(N)=O)NC(=O)[C@@H]4CCCN4C(=O)[C@H](CCCNC(=N)N)NC(=O)[C@H](CSSC[C@H](NC(=O)[C@@H](N)CC(=O)O)C(=O)N[C@@H](CC(C)C)C(=O)NCC(=O)N[C@@H](C)C(=O)N[C@@H](CC(C)C)C(=O)N[C@@H](CCCNC(=N)N)C(=O)N[C@@H](CCCCN)C(=O)N2)NC(=O)[C@H](CSSC[C@@H](C(=O)N[C@@H](CCCCN)C(=O)N[C@@H](Cc2ccc(O)cc2)C(=O)N[C@H](C(=O)N[C@@H](Cc2ccccc2)C(N)=O)C(C)C)NC(=O)[C@H](Cc2c[nH]c4ccccc24)NC(=O)[C@H](CCCNC(=N)N)NC(=O)[C@H](Cc2c[nH]cn2)NC(=O)[C@H](CC(C)C)NC(=O)[C@H](CCCNC(=N)N)NC(=O)[C@H](CO)NC3=O)NC(=O)[C@H](CCCCN)NC(=O)[C@H](CC(=O)O)NC1=O (H-DCLGALRKCIPD[Abu]DKCCRPNLVCSRLHRWCKYVF-NH2; disulfide 2-17, 9-23, 16-30) | 8.7 | > 10000
4 | CC[C@H](C)[C@@H]1NC(=O)[C@@H]2CSSC[C@@H]3NC(=O)[C@H](C(C)C)NC(=O)[C@H](CC(C)C)NC(=O)[C@H](CC(N)=O)NC(=O)[C@@H]4CCCN4C(=O)[C@H](CCCNC(=N)N)NC(=O)[C@H](CSSC[C@H](NC(=O)[C@@H](N)CC(=O)O)C(=O)N[C@@H](CC(C)C)C(=O)NCC(=O)N[C@@H](C)C(=O)N[C@@H](CCSC)C(=O)N[C@@H](CCCNC(=N)N)C(=O)N[C@@H](CCCCN)C(=O)N2)NC(=O)[C@H](CSSC[C@@H](C(=O)N[C@@H](CCCCN)C(=O)N[C@@H](Cc2ccc(O)cc2)C(=O)N[C@H](C(=O)N[C@@H](Cc2ccccc2)C(N)=O)C(C)C)NC(=O)[C@H](Cc2c[nH]c4ccccc24)NC(=O)[C@H](CCC(=O)O)NC(=O)[C@H](Cc2c[nH]cn2)NC(=O)[C@H]([C@@H](C)O)NC(=O)[C@H](CCCNC(=N)N)NC(=O)[C@H](CO)NC3=O)NC(=O)[C@H](CCCCN)NC(=O)[C@H](CC(=O)O)NC(=O)[C@H](CC(N)=O)NC(=O)[C@H](CC(=O)O)NC(=O)[C@@H]2CCCN2C1=O [[Ala5;Glu28]GpTx-1(1-34)] | 614 | > 10000
5 | C#CC[C@@H]1NC(=O)[C@H](CC(=O)O)NC(=O)[C@@H]2CCCN2C(=O)[C@H](CCC(=O)O)NC(=O)[C@@H]2CSSC[C@@H]3NC(=O)[C@H](C(C)C)NC(=O)[C@H](CC(C)C)NC(=O)[C@H](CC(N)=O)NC(=O)[C@@H]4CCCN4C(=O)[C@H](CCCNC(=N)N)NC(=O)[C@H](CSSC[C@H](NC(=O)[C@@H](N)CC(=O)O)C(=O)N[C@@H](CC(C)C)C(=O)NCC(=O)N[C@@H](C)C(=O)N[C@@H](Cc4ccccc4)C(=O)N[C@@H](CCCNC(=N)N)C(=O)N[C@@H](CCCCN)C(=O)N2)NC(=O)[C@H](CSSC[C@@H](C(=O)N[C@@H](CCCCN)C(=O)N[C@@H](Cc2ccc(O)cc2)C(=O)N[C@H](C(=O)N[C@@H](Cc2ccccc2)C(N)=O)C(C)C)NC(=O)[C@H](Cc2c[nH]c4ccccc24)NC(=O)[C@H](CCCNC(=N)N)NC(=O)[C@H](Cc2c[nH]cn2)NC(=O)[C@H](CC(C)C)NC(=O)[C@H](CCCNC(=N)N)NC(=O)[C@H](CO)NC3=O)NC(=O)[C@H](CCCCN)NC(=O)[C@H](CC(=O)O)NC1=O (H-DCLGAFRKCEPD[Pra]DKCCRPNLVCSRLHRWCKYVF-NH2; disulfide 2-17, 9-23, 16-30) | 12 | 15300
6 | C#CCCC(=O)N[C@@H](CC(=O)O)C(=O)N[C@H]1CSSC[C@@H]2NC(=O)[C@@H]3CSSC[C@@H](C(=O)N[C@@H](CCCCN)C(=O)N[C@@H](Cc4ccc(O)cc4)C(=O)N[C@H](C(=O)N[C@@H](Cc4ccccc4)C(N)=O)C(C)C)NC(=O)[C@H](Cc4c[nH]c5ccccc45)NC(=O)[C@H](CCCNC(=N)N)NC(=O)[C@H](Cc4c[nH]cn4)NC(=O)[C@H]([C@@H](C)O)NC(=O)[C@H](CCCNC(=N)N)NC(=O)[C@H](CO)NC(=O)[C@H](CSSC[C@H](NC(=O)[C@H](CCCCN)NC(=O)[C@H](CCCNC(=N)N)NC(=O)[C@H](CC(C)C)NC(=O)[C@H](CC)NC(=O)CNC(=O)[C@H](CC(C)C)NC1=O)C(=O)N[C@@H]([C@@H](C)CC)C(=O)N1CCC[C@H]1C(=O)N[C@@H](CC(=O)O)C(=O)N[C@@H](CC)C(=O)N[C@@H](CC(=O)O)C(=O)N[C@@H](CCCCN)C(=O)N3)NC(=O)[C@H](C(C)C)NC(=O)[C@H](CC(C)C)NC(=O)[C@H](CC(N)=O)NC(=O)[C@@H]1CCCN1C(=O)[C@H](CCCNC(=N)N)NC2=O [4-Pen-[2-Abu5,13;Leu6;Arg28]GpTx-1(1-34)] (Pent4ynoyl-DCLG[Abu]LRKCIPD[Abu]DKCCRPNLVCSRTHRWCKYVF-NH2; disulfide 2-17, 9-23, 16-30) | 3 | > 10000
7 | CC[C@H](C)[C@@H]1NC(=O)[C@@H]2CSSC[C@@H]3NC(=O)[C@H](C(C)C)NC(=O)[C@H](CC(C)C)NC(=O)[C@H](CC(N)=O)NC(=O)[C@@H]4CCCN4C(=O)[C@H](CCCNC(=N)N)NC(=O)[C@H](CSSC[C@H](NC(=O)[C@@H](N)CC(=O)O)C(=O)N[C@@H](CC(C)C)C(=O)NCC(=O)N(C)[C@@H](Cc4ccccc4)C(=O)N[C@@H](CC(C)C)C(=O)N[C@@H](CCCNC(=N)N)C(=O)N[C@@H](CCCCN)C(=O)N2)NC(=O)[C@H](CSSC[C@@H](C(=O)N[C@@H](CCCCN)C(=O)N[C@@H](Cc2ccc(O)cc2)C(=O)N[C@H](C(=O)N[C@@H](Cc2ccccc2)C(N)=O)C(C)C)NC(=O)[C@H](Cc2c[nH]c4ccccc24)NC(=O)[C@H](CCCCN)NC(=O)[C@H](Cc2c[nH]cn2)NC(=O)[C@H]([C@@H](C)O)NC(=O)[C@H](CCCNC(=N)N)NC(=O)[C@H](CO)NC3=O)NC(=O)[C@H](CCCCN)NC(=O)[C@H](CC(=O)O)NC(=O)[C@H](CC(N)=O)NC(=O)[C@H](CC(=O)O)NC(=O)[C@@H]2CCCN2C1=O [[NMePhe5;Leu6]GpTx-1(1-34)] | 12 | 11300
8 | CC[C@H](C)[C@@H]1NC(=O)[C@@H]2CSSC[C@@H]3NC(=O)[C@H](C(C)C)NC(=O)[C@H](CC(C)C)NC(=O)[C@H](CC(N)=O)NC(=O)[C@@H]4CCCN4C(=O)[C@H](CCCNC(=N)N)NC(=O)[C@H](CSSC[C@H](NC(=O)[C@@H](N)CC(=O)O)C(=O)N[C@@H](CC(C)C)C(=O)NCC(=O)N[C@@H](C)C(=O)N[C@@H](CCSC)C(=O)N[C@@H](CCCNC(=N)N)C(=O)N[C@@H](CCCCN)C(=O)N2)NC(=O)[C@H](CSSC[C@@H](C(=O)N[C@@H](CCCCN)C(=O)N[C@@H](Cc2ccc(O)cc2)C(=O)N[C@H](C(=O)N[C@@H](Cc2ccccc2)C(N)=O)C(C)C)NC(=O)[C@H](Cc2c[nH]c4ccccc24)NC(=O)[C@H](Cc2c[nH]cn2)NC(=O)[C@H](Cc2c[nH]cn2)NC(=O)[C@H]([C@@H](C)O)NC(=O)[C@H](CCCNC(=N)N)NC(=O)[C@H](CO)NC3=O)NC(=O)[C@H](CCCCN)NC(=O)[C@H](CC(=O)O)NC(=O)[C@H](CC(N)=O)NC(=O)[C@H](CC(=O)O)NC(=O)[C@@H]2CCCN2C1=O [[Ala5;His28]GpTx-1(1-34)] (H-DCLGAMRKCIPDNDKCCRPNLVCSRTHHWCKYVF-NH2; disulfide 2-17, 9-23, 16-30) | 26 | > 10000
